Values of other authors, collected in patent publication US9750827B2, “Near-infrared dye-conjugated hyaluronic acid derivative and contrast agent for optical imaging including them” (CANON KABUSHIKI KAISHA, priority 2013, dated 2017).

Settings: known in the art

CC1(C)C(/C=C/C=C/C=C/C=C2/N(CCCCS(=O)(=O)[O-])c3ccc4ccccc4c3C2(C)C)=[N+](CCCCS(=O)(=O)[O-])c2ccc3ccccc3c21.[Na+] [ICG, indocyanine green]
half-life in blood: about several minutes
